# Measured values as given in US9399032B2, “Methods and compositions for treating degenerative and ischemic disorders” (The General Hospital Corporation, priority 2009, dated 2016).
# Structures can show the parent of a compound that is named as a salt.
# Key:
# [1] = system: GLS expressing 293 cells; test: OCR in 293 cells with forced GLS expression; format: cell-based; conditions: 50 μM
# Description: FIG. 14B presents exemplary data showing OCR measurements on FACS sorted control (LacZ) or GLS expressing cells following DMSO or 50 μM meclizine addition at time 0 min (n=4).
# Glutaminase full length cDNA (Open Biosystems, Accession #BCO38507) was amplified using proof-reading TAQ polymerase (Accuprime, Invitrogen) with primers which included attb1 and attb2 sites for subsequent subcloning into pDONR 221 vector (Invitrogen). Partial Kozak sequence was included in the 5′ primer and stop codon was eliminated in the 3′ primer. The sequences of forward (F) and reverse primers (R) are—5′-GGGGACAAGTTTGTACAAAAAAGCAGGCTCCACCATGATGCGGCTGCGAGGCTC-3′ (SEQ ID NO: 2); and 5′-GGGGACCACTTTGTACAAGAAAGCTGGGTCCAACAATCCATCAAGATTCT-3′ (SEQ ID NO: 3), respectively. Resulting PCR fragment was cloned into Gateway entry vector pDONR 221 (Invitrogen) with BP clonase using STBL2 E. coli competent cells (Invitrogen). Subsequently, it was subcloned into destination vector pcDNA6.2-EMGFP-DEST with LR clonase and was sequenced verified. The 293 cells were transfected with the pcDNA6.2-GLS-GFP and the control vector pcDNA6.2-LacZ-GFP using Fugene (Roche) reagent. GLS expression was confirmed by Western blot using anti-GLS antibody. FACS sorted transfected cells were subjected to meclizine treatment followed by OCR and ECAR measurements.
# [2] = system: C2C12 myotubes; test: [3H]-2-deoxyglucose uptake; format: cell-based; conditions: 50 micromolar, four hours
# Description: Fully differentiated C2C12 myotubes were subjected to a glucose uptake protocol, as follows. Briefly, C2C12 myotube cells were incubated for four hours in serum-free media containing either 0.1% DMSO as a control, 50 micromolar meclizine, 50 micromolar S-meclizine, or 2 mM metformin. Cells were subsequently incubated for thirty minutes in serum and glucose free buffer and then transitioned to buffer containing [3H]-2-deoxyglucose for five minutes. After multiple wash steps, cells were lysed and the lysate was subjected to scintillation counting to quantify uptake. Data were prepared as raw counts per minute, which is proportional to 2-deoxyglucose uptake.
# [3] = system: MCH58 fibroblasts
# Description: Cell viability was assayed by calcein acetoxymethyl (AM) ester assay (Invitrogen C34852). MCH58 cells were seeded in 96-well plates at 5000 cells/well in DMEM high glucose medium. After ˜20 hours, cells were washed in PBS and the growth medium was replaced with 10 mM glucose or 10 mM galactose media containing different concentration of drugs or DMSO (0.1%). The cells were then grown for 72 hours followed by washing with PBS and addition of 5 μM calcein AM. After 30 minutes of incubation at 37° C., fluorescence was measured at an excitation and emission wavelength (ex/em) of 485 nm and 530 nm in a DTX880 multimode detector (Beckman Coulter).
# Total cellular ATP level was measured using the CellTiter-Glo Luminescent Viability assay (Promega, G7571). Cells were grown in 96-well plates at 5000 cells/well for MCH58 and 20,000 cells/well for mouse striatal cells.
smiles,measurement,setting,value
"Cc1cccc(CN2CCN(C(c3ccccc3)c3ccc(Cl)cc3)CC2)c1 (racemic) [Meclizine, meclizine hydrochloride]",oxygen consumption with constitutive GLS expression,[1],continued to suppress oxygen consumption
same,basal glucose uptake,[2],promoted increased basal glucose uptake
same,"cellular ATP levels, galactose-rich relative to glucose-rich media",[3]; MCH58,more sensitive
same,LD50 in galactose-rich media as compared to glucose-rich media,[3]; human,at least two-fold difference
same,growth of fibroblasts,[3]; over a three-day period,retard the growth of fibroblasts in a dose dependent manner
